According to paper PMC10564737, “Structure-based design of a phosphotyrosine-masked covalent ligand targeting the E3 ligase SOCS2” (Nature Communications, 2023):

Assays:
[1] = target: T1, SOCS2 (SBC2) (Homo sapiens, UniProt O14508); assay: Intact ESI-MS of recombinant protein, covalent modification; type: biochemical
T1 construct: SOCS2 (amino acids 32–198); His6 (N, cleaved yes); made in house; host or cells: E. coli BL21(DE3)
Method: SBC2 protein (40 µM), SBC2 C111S, SBC4, SBC6, or CISH were incubated with an equimolar concentration of MN551 in 50 mM Tris, pH 8.0, 50 mM NaCl, 1 mM TCEP. At defined time points 20 µl samples were removed and the protein precipitated by the addition of 80 µl methanol. The precipitated protein was pelleted by centrifugation, washed with 500 µl methanol, and resuspended in an aqueous solution of 15% acetonitrile and 1% TFA. Samples were separated by HPLC on a C3 column using a 10–75% gradient of acetonitrile and analyzed using an Agilent 6130 quadrupole MS. Spectra were deconvoluted and integrated using Agilent LC/MSD ChemStation.

[2] = target: T2, SOCS2 Cys111 (Homo sapiens, UniProt O14508); assay: SOCS2 immunoprecipitation and tandem MS (LC-MS/MS) of Cys111 peptide from treated K562 cells; type: cell-based; conditions: 6 h
T2 construct: MN551 covalently modifies cellular SOCS2 specifically at Cys111; endogenous in cells; host or cells: K562
T2 sequence (O14508 1-198): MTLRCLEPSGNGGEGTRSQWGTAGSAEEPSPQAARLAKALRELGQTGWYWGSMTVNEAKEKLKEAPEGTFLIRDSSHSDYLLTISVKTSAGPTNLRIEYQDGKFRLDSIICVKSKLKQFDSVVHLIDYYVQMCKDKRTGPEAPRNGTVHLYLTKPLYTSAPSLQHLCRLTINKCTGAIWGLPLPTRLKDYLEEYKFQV
Method: While CETSA and GHR pulldown experiments allow ascertaining the engagement of cellular SOCS2, distinguishing reversible binding from covalent binding remains a challenge. […] Moreover, the MS2 spectra for cells treated with 1 μM and 10 μM MN714 show a dose-dependent increase in levels of SOCS2 modification (Fig. 6e).
Cells were treated with either DMSO, 1 μM, or 10 μM MN714 for 6 h in 10 cm dish. Cells were harvested, washed with PBS, and lysed in […] RIPA buffer (Sigma-R0278: 150 mM NaCl, 1.0% IGEPAL® CA-630, 0.5% sodium deoxycholate, 0.1% SDS, 50 mM Tris, pH 8.0, and freshly added protease inhibitor tablet). Cellular debris was pelleted, the lysate supernatant was aspirated to a new tube and subjected to immunoprecipitation at 4 °C for 4 h with 3 μl anti-SOCS2 antibody coupled to 20 μl of protein A/G beads (abcam- ab109245). The beads were washed 3 times with 1× RIPA buffer and precipitated protein samples were eluted with 1 × NuPAGE™ LDS sample buffer, and 20% of the sample was analyzed by SDS-PAGE and western blot using a rabbit anti-SOCS2 primary antibody (abcam) and IRDye® 800CW donkey anti-rabbit IgG secondary antibody. The remaining precipitated protein samples were processed for mass-spec analysis. In brief, the samples were reduced with DTT alkylated with Iodoacetamide and subjected to the SP3 protein clean-up procedure. […]
LC-MS analysis was performed by the FingerPrints Proteomics Facility (University of Dundee). Analysis of peptide readout was performed on a Q-Exactive™ plus, Mass Spectrometer (Thermo Scientific) coupled to a Dionex Ultimate 3000 RS (Thermo Scientific). […]
MS raw data were analyzed using MaxQuant software, standard settings were used with the following changes and additions: The modified FASTA databases with individual substitutions of cysteines with the placeholder “U” (selenocysteine) were used[67]. […] The relative intensity of peptide […] without and with a modified cysteine (placeholder “U”) were analyzed by normalizing to total intensity of SOCS2 protein.

[3] = system: K562 cells; assay: cells; type: cell-based
Method: Supplementary Figure 10: GSH kinetic study of compound MN551 in GSH stability assay. A and B.
A plot of unmodified MN551 v/s time. The starting concentrations of MN551 were 1 and 10 µM in A and B respectively. C. Reactivity of MN551 measured against Afatinib and Ibrutinib
Supplementary Figure 11: Cell viability assay to assess cytotoxicity of MN714. (EC50 reported as mean±SEM, technical replicates=3).
(1 picture or pasted object on this page, not shown here)

T1 sequence (Q15369 17-112, one chain of several, further chain): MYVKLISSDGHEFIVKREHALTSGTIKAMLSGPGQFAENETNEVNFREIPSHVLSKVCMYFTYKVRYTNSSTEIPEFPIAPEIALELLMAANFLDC
T1 sequence (Q15370 1-104, one chain of several, further chain): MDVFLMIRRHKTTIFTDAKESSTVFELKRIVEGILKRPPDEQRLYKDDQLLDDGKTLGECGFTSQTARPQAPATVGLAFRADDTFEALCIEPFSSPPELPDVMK

Row | SMILES | covalent adduct observed by intact mass analysis ([1]; SBC2 (40 µM) treated with MN551 (40 µM)) | time to stoichiometric occupancy at Cys111 ([1]; recombinant SOCS2, equimolar compound) | relative intensity of modified peptide LDSIIUVK, normalised to total SOCS2 levels ([2]; 1uM) | relative intensity of unmodified peptide LDSIICVK, normalised to total SOCS2 levels ([2]; 1uM) | relative intensity of unmodified peptide LDSIICVK, normalised to total SOCS2 levels ([2]; 10uM) | EC50 ([3]; Homo sapiens, K562 24hrs, read-out: cell viability EC50) | concentration up to which no significant cytotoxicity was observed ([3]; K562 cells)
1 | O=C(CCl)Nc1cccc(CNC(=O)[C@H](Cc2ccc(OP(=O)(O)O)cc2)NC(=O)Cc2ccc(F)cc2)c1 [MN551] | 1:1 covalent SOCS2:MN551 adduct and single covalent adduct | ≤ 2 h | – | – | – | – | –
2 | CC(C)(C)C(=O)OCOP(=O)(OCOC(=O)C(C)(C)C)Oc1ccc(C[C@H](NC(=O)Cc2ccc(F)cc2)C(=O)NCc2cccc(NC(=O)CCl)c2)cc1 [MN714] | – | – | 24.9386 | 85.6581 | 0 | 11.8 µM | 3000 to 10000 nM
